{"source": "patent US10966978B2", "about": "“Dose and regimen for HDM2-p53 interaction inhibitors” (Novartis AG, priority 2016, dated 2021)", "key": {"SJSA-1 cell line": {"test_system": "SJSA-1 cell line", "experiment": "Cellular activity in SJSA-1 cell line", "format": "cell-based", "details": "Homo sapiens"}, "[1]": {"test_system": "advanced TP53 wild-type (WT) leukemias (AML, ALL)", "format": "in vivo, human", "from_the_text": "Tables 5 and 6 and FIG. 6 provide efficacy information for dosing regimen 1B in comparison to other regimens."}, "[2]": {"details": "AML CR patient, 1A 250 mg, March 2017"}, "[3]": {"details": "AML CR patient, 1A 400 mg, March 2017"}, "[4]": {"details": "AML CR patient, 2C 45 mg, March 2017"}, "[5]": {"details": "AML CRi patient, 1B 150 mg, March 2017"}, "[6]": {"details": "CR, Reg 1A 250 mg, person, September 2017"}, "[7]": {"details": "CR, Reg 1A 400 mg, Male/71, September 2017"}, "[8]": {"details": "CR, Reg 1B 120 mg, Male/67, September 2017"}, "[9]": {"details": "CR, Reg 2C 45 mg, Male/76, September 2017"}, "[10]": {"details": "CR, Reg 2C 45 mg, person, September 2017"}, "[11]": {"details": "CRi, Reg 1A 250 mg, person, September 2017"}, "[12]": {"details": "CRi, Reg 1B 150 mg, person, September 2017"}, "[13]": {"details": "CRi, Reg 2C 45 mg, Male/70, September 2017"}, "[14]": {"details": "CRi, Reg 2C 45 mg, Male/79, September 2017"}, "[15]": {"details": "CRi, Reg 2C 45 mg, person one, September 2017"}, "[16]": {"details": "CRi, Reg 2C 45 mg, person three, September 2017"}, "[17]": {"details": "Dose escalation, Regimen 2C 45 mg (8 patients), September 2017"}, "[18]": {"details": "Dose expansion, Regimen 2C 45 mg (17 patients), September 2017"}, "[19]": {"details": "Regimen 1A (n = 15), March 2017"}}, "note": "Like-named read-outs stand apart in the source and are kept apart here. Marks after values point to notes of the source that are not given here.", "data": [{"smiles": "COc1ncc(-c2nc3c(n2C(C)C)[C@H](c2ccc(Cl)cc2)N(c2cc(Cl)cn(C)c2=O)C3=O)c(OC)n1", "note": "[HDM201, (S)-5-(5-Chloro-1-methyl-2-oxo-1,2-dihydro-pyridin-3-yl)-6-(4-chloro-phenyl)-2-(2,4-dimethoxy-pyrimidin-5-yl)-1-isopropyl-5,6-dihydro-1H-pyrrolo[3,4-d]imidazol-4-one]", "values": [{"measurement": "IC50", "setting": "SJSA-1 cell line", "result": 0.0294, "unit": "µg/mL"}, {"measurement": "Count recovery time from C1D1", "setting": "[1]; [2]", "result": 48, "unit": "days"}, {"measurement": "Duration of CR/CRi", "setting": "[1]; [2]", "result": 50, "unit": "days"}, {"measurement": "Time to CR/CRi", "setting": "[1]; [2]", "result": 7, "unit": "weeks"}, {"measurement": "Count recovery time from C1D1", "setting": "[1]; [3]", "result": 40, "unit": "days"}, {"measurement": "Duration of CR/CRi", "setting": "[1]; [3]", "result": 23, "unit": "days"}, {"measurement": "Time to CR/CRi", "setting": "[1]; [3]", "result": 6, "unit": "weeks"}, {"measurement": "Count recovery time from C1D1", "setting": "[1]; [4]", "result": 32, "unit": "days"}, {"measurement": "Duration of CR/CRi", "setting": "[1]; [4]", "result": 152, "unit": "days"}, {"measurement": "Time to CR/CRi", "setting": "[1]; [4]", "result": 5, "unit": "weeks"}, {"measurement": "Duration of CR/CRi", "setting": "[1]; [5]", "result": 51, "unit": "days"}, {"measurement": "Time to CR/CRi", "setting": "[1]; [5]", "result": 11, "unit": "weeks"}, {"measurement": "Duration of CR/CRi", "setting": "[1]; AML CRi patient, 2C 45 mg, donor five, March 2017, patient withdrew consent while on CRi", "result": "1* days"}, {"measurement": "Duration of CR/CRi", "setting": "[1]; AML CRi patient, 2C 45 mg, donor two, March 2017, patient ongoing at data cut off", "result": "1^† days"}, {"measurement": "CR/CRi results, number of patients", "setting": "[1]; AML patients, Regimen 1B, September 2017", "result": "The already observed 2 CR/CRi results out of the small number of patients treated so far demonstrate the strong antitumor activity of the HDM201 in AML patients when dosed according to Regimen 1B."}, {"measurement": "Count recovery time from C1D1", "setting": "[1]; [6]", "result": 48, "unit": "days"}, {"measurement": "Duration of CR/CRi", "setting": "[1]; [6]", "result": 50, "unit": "days"}, {"measurement": "Time to CR/CRI", "setting": "[1]; [6]", "result": 7, "unit": "weeks"}, {"measurement": "Count recovery time from C1D1", "setting": "[1]; [7]", "result": 40, "unit": "days"}, {"measurement": "Duration of CR/CRi", "setting": "[1]; [7]", "result": 23, "unit": "days"}, {"measurement": "Time to CR/CRI", "setting": "[1]; [7]", "result": 6, "unit": "weeks"}, {"measurement": "Count recovery time from C1D1", "setting": "[1]; [8]", "result": 28, "unit": "days"}, {"measurement": "Duration of CR/CRi", "setting": "[1]; [8]", "result": 45, "unit": "days"}, {"measurement": "Time to CR/CRI", "setting": "[1]; [8]", "result": 4, "unit": "weeks"}, {"measurement": "Count recovery time from C1D1", "setting": "[1]; [9]", "result": 32, "unit": "days"}, {"measurement": "Duration of CR/CRi", "setting": "[1]; [9]", "result": 152, "unit": "days"}, {"measurement": "Time to CR/CRI", "setting": "[1]; [9]", "result": 5, "unit": "weeks"}, {"measurement": "Count recovery time from C1D1", "setting": "[1]; [10]", "result": 30, "unit": "days"}, {"measurement": "Duration of CR/CRi", "setting": "[1]; [10]", "result": 41, "unit": "days"}, {"measurement": "Time to CR/CRI", "setting": "[1]; [10]", "result": 4, "unit": "weeks"}, {"measurement": "Duration of CR/CRi", "setting": "[1]; [11]", "result": 67, "unit": "days"}, {"measurement": "Time to CR/CRI", "setting": "[1]; [11]", "result": 3, "unit": "weeks"}, {"measurement": "Duration of CR/CRi", "setting": "[1]; [12]", "result": 51, "unit": "days"}, {"measurement": "Time to CR/CRI", "setting": "[1]; [12]", "result": 11, "unit": "weeks"}, {"measurement": "Duration of CR/CRi", "setting": "[1]; [13]", "result": 1, "unit": "days"}, {"measurement": "Time to CR/CRI", "setting": "[1]; [13]", "result": 12, "unit": "weeks"}, {"measurement": "Duration of CR/CRi", "setting": "[1]; [14]", "result": 62, "unit": "days"}, {"measurement": "Time to CR/CRI", "setting": "[1]; [14]", "result": 4, "unit": "weeks"}, {"measurement": "Duration of CR/CRi", "setting": "[1]; [15]", "result": 105, "unit": "days"}, {"measurement": "Time to CR/CRI", "setting": "[1]; [15]", "result": 4, "unit": "weeks"}, {"measurement": "Duration of CR/CRi", "setting": "[1]; [16]", "result": 40, "unit": "days"}, {"measurement": "Time to CR/CRI", "setting": "[1]; [16]", "result": 7, "unit": "weeks"}, {"measurement": "CR, number of patients", "setting": "[1]; Dose escalation, Regimen 1A 250 mg (3 patients), September 2017", "result": "250 mg (3): 1 CR"}, {"measurement": "CR, number of patients", "setting": "[1]; Dose escalation, Regimen 1A 400 mg (9 patients), September 2017", "result": "400 mg (9): 1 CR"}, {"measurement": "CR, number of patients", "setting": "[1]; Dose escalation, Regimen 1B 120 mg (6 patients), September 2017", "result": "120 mg (6): 1 CR"}, {"measurement": "CRi, number of patients", "setting": "[1]; Dose escalation, Regimen 1B 150 mg (6 patients), September 2017", "result": "150 mg (6): 1 CRi"}, {"measurement": "CR, number of patients", "setting": "[1]; [17]", "result": 1}, {"measurement": "CRi, number of patients", "setting": "[1]; [17]", "result": 3}, {"measurement": "CRi, number of patients", "setting": "[1]; Dose expansion, Regimen 1A 250 mg, 6 pts, September 2017", "result": 1, "unit": "CRi"}, {"measurement": "CR, number of patients", "setting": "[1]; [18]", "result": "1 CR, 1CRi"}, {"measurement": "CRi, number of patients", "setting": "[1]; [18]", "result": "1 CR, 1CRi"}, {"measurement": "BOR: CR", "setting": "[1]; [19]", "result": "2 (13) n (%)"}, {"measurement": "BOR: CRi", "setting": "[1]; [19]", "result": "0 (0) n (%)"}, {"measurement": "ORR (CR + CRi + PR)", "setting": "[1]; [19]", "result": "2 (13) n (%)"}, {"measurement": "BOR: CR", "setting": "[1]; Regimen 1B (n = 6), March 2017", "result": "0 (0) n (%)"}, {"measurement": "BOR: CRi", "setting": "[1]; Regimen 1B (n = 6), March 2017", "result": "1 (17) n (%)"}, {"measurement": "ORR (CR + CRi + PR)", "setting": "[1]; Regimen 1B (n = 6), March 2017", "result": "1 (17) n (%)"}, {"measurement": "BOR: CR", "setting": "[1]; Regimen 2A (n = 7), March 2017", "result": "0 (0) n (%)"}, {"measurement": "BOR: CRi", "setting": "[1]; Regimen 2A (n = 7), March 2017", "result": "0 (0) n (%)"}, {"measurement": "ORR (CR + CRi + PR)", "setting": "[1]; Regimen 2A (n = 7), March 2017", "result": "0 (0) n (%)"}, {"measurement": "BOR: CR", "setting": "[1]; Regimen 2C (n = 7), March 2017", "result": "1 (14) n (%)"}, {"measurement": "BOR: CRi", "setting": "[1]; Regimen 2C (n = 7), March 2017", "result": "3 (43) n (%)"}, {"measurement": "ORR (CR + CRi + PR)", "setting": "[1]; Regimen 2C (n = 7), March 2017", "result": "4 (57) n (%)"}, {"measurement": "BOR: CR", "setting": "[1]; Total (N = 35), March 2017", "result": "3 (9) n (%)"}, {"measurement": "BOR: CRi", "setting": "[1]; Total (N = 35), March 2017", "result": "4 (11) n (%)"}, {"measurement": "ORR (CR + CRi + PR)", "setting": "[1]; Total (N = 35), March 2017", "result": "7 (20) n (%)"}, {"measurement": "patients with CRi", "setting": "[1]; regimen 1B, hematological tumors", "result": "One patient"}]}]}
